From the NIST ThermoML archive (doi:10.1021/je300347z)

Key:
[1] = Liquid; for mass density: 293.2 K, 101.33 kPa, Vibrating tube method
[2] = refractive index (Na D-line) (dimensionless); details: 293.2 K; 101.33 kPa; Liquid; Standard Abbe refractometry

C=C(C)[C@H]1CC=C(C)CC1 [(R)-1-methyl-4-(1-methylethenyl)cyclohexene]
Details | mass density [kg/m3] | refractive index
[1] | 814.83 | –
[2] | – | 1.473

[1]
Details | vapor or sublimation pressure [kPa]
375.5 K | 10
394.5 K | 20
403.2 K | 27.48
406.5 K | 30
415.7 K | 40
415.8 K | 40
423.2 K | 49.74
423.4 K | 50
429.8 K | 60
435.5 K | 70
440.5 K | 80
445 K | 90
450 K | 100

CCCCO [butan-1-ol]
Details | mass density [kg/m3] | refractive index
[1] | 810.28 | –
[2] | – | 1.3993

[1]
Details | vapor or sublimation pressure [kPa]
337.2 K | 10
351.1 K | 20
360 K | 30
366.7 K | 40
372.1 K | 50
376.6 K | 60
380.5 K | 70
384 K | 80
387.2 K | 90
390.1 K | 100

CCO [ethanol]
Details | mass density [kg/m3] | refractive index
[1] | 789.91 | –
[2] | – | 1.3612

[1]
Details | vapor or sublimation pressure [kPa]
302.4 K | 10
315.4 K | 20
323.6 K | 30
329.7 K | 40
330 K | 40
334.7 K | 50
338.8 K | 60
342.4 K | 70
345.6 K | 80
348.5 K | 90
351.1 K | 100

CCCCCCO [hexan-1-ol]
Details | mass density [kg/m3] | refractive index
[1] | 816.31 | –
[2] | – | 1.4207

[1]
Details | vapor or sublimation pressure [kPa]
369.8 K | 10
385.7 K | 20
395.7 K | 30
403.2 K | 40
403.4 K | 40
409.3 K | 50
414.5 K | 60
419 K | 70
423 K | 80
426.5 K | 90
429.6 K | 99.7

CCCCCO [pentan-1-ol]
Details | mass density [kg/m3] | refractive index
[1] | 814.16 | –
[2] | – | 1.4097

[1]
Details | vapor or sublimation pressure [kPa]
354 K | 10
368.7 K | 20
378 K | 30
384.7 K | 40
385.3 K | 40
391 K | 50
395.9 K | 60
400.2 K | 70
403.9 K | 80
407.3 K | 90
410.4 K | 100

CCCO [propan-1-ol]
Details | mass density [kg/m3] | refractive index
[1] | 801.33 | –
[2] | – | 1.3851

[1]
Details | vapor or sublimation pressure [kPa]
319.6 K | 10
332.8 K | 20
341.3 K | 30
347.7 K | 40
352.7 K | 50
357.1 K | 60
360.8 K | 70
364.1 K | 80
367.1 K | 90
369.8 K | 100

CC(C)O [propan-2-ol]
Details | mass density [kg/m3] | refractive index
[1] | 785.42 | –
[2] | – | 1.3771

[1]
Details | vapor or sublimation pressure [kPa]
307.1 K | 10
319.9 K | 20
328 K | 30
334 K | 40
334.1 K | 40
338.8 K | 50
342.9 K | 60
346.5 K | 70
349.7 K | 80
352.5 K | 90
355 K | 100
